In the SangsterLogP compilation:

logP	SMILES
5.34	COC(=O)CCCCCc1ccc2c(c1O)C(=O)c1c(O)cccc1C2
4.6	O=C(O)CCCCCc1ccc2c(c1O)C(=O)c1c(O)cccc1C2
3.93	COC(=O)Cc1ccc2c(c1O)C(=O)c1c(O)cccc1C2
5.17	COC(=O)C(CCc1ccccc1)c1ccc2c(c1O)C(=O)c1c(O)cccc1C2 (stereo not drawn)
4.22	O=C(O)CCCCc1ccc2c(c1O)C(=O)c1c(O)cccc1C2
3.91	O=C(O)CCCc1ccc2c(c1O)C(=O)c1c(O)cccc1C2
4.55	COC(=O)CCc1ccc2c(c1O)C(=O)c1c(O)cccc1C2
4.33	O=C1c2c(O)cccc2Cc2ccc(C(CCc3ccccc3)C(=O)O)c(O)c21 (stereo not drawn)
5.22	COC(=O)c1ccc(C(=O)c2ccc3c(c2O)C(=O)c2c(O)cccc2C3)cc1
3.9	CC(C(=O)O)C(C)c1ccc2c(c1O)C(=O)c1c(O)cccc1C2 (stereo not drawn)
4.86	COC(=O)C(Cc1ccccc1)c1ccc2c(c1O)C(=O)c1c(O)cccc1C2 (stereo not drawn)
4.97	COC(=O)CCCCc1ccc2c(c1O)C(=O)c1c(O)cccc1C2
3.78	O=C(O)CCc1ccc2c(c1O)C(=O)c1c(O)cccc1C2
4.77	COC(=O)C(C)C(C)c1ccc2c(c1O)C(=O)c1c(O)cccc1C2 (stereo not drawn)
4.11	O=C1c2c(O)cccc2Cc2ccc(C(Cc3ccccc3)C(=O)O)c(O)c21 (stereo not drawn)
4.63	COC(=O)CCCc1ccc2c(c1O)C(=O)c1c(O)cccc1C2
3.4	CC(C(=O)O)c1ccc2c(c1O)C(=O)c1c(O)cccc1C2 (stereo not drawn)
4.16	COC(=O)C(C)c1ccc2c(c1O)C(=O)c1c(O)cccc1C2 (stereo not drawn)
